Article PMC6753144, “Exploiting biofilm phenotypes for functional characterization of hypothetical genes in Enterococcus faecalis” (NPJ Biofilms and Microbiomes, 2019)

Biological target: T1, Bph-H6 (Bph, OG1RF_10435, biofilm phosphatase) (Enterococcus faecalis, UniProt A0ACD6T9Q6)
T1 construct: full length, 177 residues, C-terminal His6 tag (pET28b+, NcoI/XhoI), expressed in E. coli BL21(DE3), Ni-NTA purified
Assay: malachite green phosphate release assay
Type: biochemical
Conditions: 10 mM Mn2+, pH 7.5, 37 °C, 1 h, 1 µM enzyme, 100 µM substrate

T1 sequence (A0ACD6T9Q6 entry or part of it): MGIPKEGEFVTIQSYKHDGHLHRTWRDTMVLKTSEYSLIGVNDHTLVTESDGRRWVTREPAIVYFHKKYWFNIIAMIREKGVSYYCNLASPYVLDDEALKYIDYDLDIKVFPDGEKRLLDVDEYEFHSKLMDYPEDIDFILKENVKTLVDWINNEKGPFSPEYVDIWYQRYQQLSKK

Structure (SMILES): Nc1ncnc2c1ncn2[C@@H]1O[C@H](COP(=O)(O)OP(=O)(O)OP(=O)(O)O)[C@@H](O)[C@H]1O [ATP]
- malachite green phosphate release assay: Bph-H6 had in vitro phosphatase activity on nucleoside triphosphate, nucleoside diphosphate, and deoxynucleoside phosphate substrates

Structure (SMILES): Nc1nc2c(ncn2[C@@H]2O[C@H](COP(=O)(O)OP(=O)(O)O)[C@@H](OP(=O)(O)OP(=O)(O)O)[C@H]2O)c(=O)[nH]1 [ppGpp]
- malachite green phosphate release assay: We also detected phosphatase activity against ppGpp, the second messenger
